Patent US11738031B2, “Compositions and methods for preventing or treating muscle conditions” (The Board of Trustees of the Leland Stanford Junior …, priority 2017, dated 2023)

Assays:
aged MuSCs = test: Aged MuSC proliferation in culture; type: cell-based, mouse
Experimental: Muscle stem cell culture, treatment and lentiviral infection: Following isolation, we resuspended MuSCs in myogenic cell culture medium containing DMEM/F10 (50:50), 15% FBS, 2.5 ng ml^−1 fibroblast growth factor-2 (FGF-2 also known as bFGF) and 1% penicillin-streptomycin. We seeded MuSC suspensions at a density of 500 cells per cm^2 surface area. We maintained cell cultures at 37° C. in 5% CO2 and changed medium daily. For PGE2, 15-PGDH inhibitor and EP4 receptor antagonist treatment studies, we added 1-200 ng/ml Prostaglandin E2 (Cayman Chemical) (unless specified in the figure legends, 10 ng/ml was the standard concentration used), and/or 1 μM EP4 antagonist (ONO-AE3-208, Cayman Chemical), or 1 μM 15-PGDH inhibitor (SW033291, Cayman Chemical) to the MuSCs cultured on collagen coated dishes for the first 24 h. The cells were then trypsinized and cells reseeded onto hydrogels for an additional 6 days of culture. All treatments were compared to their solvent (DMSO) vehicle control. For stripped serum assays, we resuspended isolated MuSCs in medium containing DMEM/F10 (50:50), 15% charcoal stripped FBS (Gibco, cat #12676011), 2.5 ng ml^−1 bFGF and 1% penicillin-streptomycin. […]
Proliferation assays: To assay proliferation, we used three different assays (hemocytometer, VisionBlue, and EdU). […] For hemocytometer cell number count, we collected cells at indicated timepoints by incubation with 0.5% trypsin in PBS for 5 min at 37° C. and quantified them using a hemocytometer at least 3 times. Additionally, we used the VisionBlue Quick Cell Viability Fluorometric Assay Kit (BioVision, catalog #K303) as a readout for cell growth in culture. Briefly, we incubated MuSCs with 10% VisionBlue in culture medium for 3 h, and measured fluorescence intensity on a fluorescence plate reader (Infinite M1000 PRO, Tecan) at Ex=530-570 nm, Em=590-620 nm. […] We quantified EdU positive cells using the MetaMorph Image Analysis software (Molecular Devices). Data analyses were blinded, where researchers performing cell scoring were unaware of the treatment condition given to sample groups analyzed.

[1] = test system: cyclic AMP levels in MuSCs; test: cAMP activity assay (cAMP-Glo); type: cell-based, mouse; conditions: PGE2 10 ng/ml, 1 hr
Experimental: cAMP activity assay: MuSCs were treated with DMSO (vehicle) or PGE2 (10 ng/ml) for 1 h and cyclic AMP levels measured according to the cAMP-Glo Assay protocol optimized by the manufacturer (Promega). Each sample was assayed in triplicate and in two independent experiments.
MuSCs were treated with DMSO (vehicle) or PGE2 (10 ng/ml) for 1 h and cyclic AMP levels measured according to the cAMP-Glo Assay protocol optimized by the manufacturer (Promega). Each sample was assayed in triplicate and in two independent experiments.

[2] = test system: endogenous MuSCs in tibialis anterior (TA) muscles; test: BLI of endogenous MuSC expansion after intramuscular bupivacaine/dmPGE2 (Example 4); type: in vivo, mouse
Experimental: Double-transgenic Pax7^CreERT2;Rosa26-LSL-Luc mice were generated by crossing Pax7^CreERT2 mice and Rosa26-LSL-Luc mice obtained from Jackson Laboratory (Stock #005125). These genotypes were validated by appropriate PCR-based strategies. All mice from transgenic and wild-type strains were of young age (2-4 months). All experiments were conducted using age and gender-matched controls. As depicted in the experimental scheme shown in FIG. 23A, mice were treated with five consecutive daily intraperitoneal injections of tamoxifen to activate luciferase expression under the control of the Pax7 promoter. A week after the last tamoxifen injection, the tibialis anterior (TA) muscles were injected intramuscularly with 50 μL of a drug mixture containing 0.125%, 0.25%, or 0.5% bupivacaine (BPV) (Cayman Chemical Cat #16618) and 10 μg 16,16-dimethyl prostaglandin E2 (dmPGE2; Tocris, Catalog #4027) using a 30 gauge needle on a Hamilton syringe. The contralateral TA received 50 μL of a mixture containing 0.5% bupivacaine (BPV) and DMSO vehicle as baseline sham control. Bioluminescence was assayed at days 3, 7, 10 and 14 post-injury.
Bioluminescence imaging (BLI) was performed using a Xenogen-100 system, as previously described. Briefly, mice were anesthetized using isofluorane inhalation and administered 120 μL D-luciferin (0.1 mmol/kg, reconstituted in PBS; Caliper LifeSciences) by intraperitoneal injection. BLI was acquired with between 5-60 second exposure at F-stop=1.0 at 5 minutes after luciferin injection. Digital images were recorded and analyzed using Living Image software (Caliper LifeSciences). Images were analyzed with a consistent region-of-interest (ROI) placed over each hindlimb to calculate a bioluminescence signal. A bioluminescence signal was calculated in radiance (p s^−1 cm^−2 sr^−1) value of 10^4 to define a positive threshold signal over background. BLI imaging was performed bi-weekly for 2 weeks after coinjection of BPV with dmPGE2 or vehicle.
The data in FIGS. 23A-C and 24 are shown as the mean±s.e.m. with n=6 mice. […]

SMILES | aged MuSC proliferation in charcoal stripped serum medium (aged MuSCs; PGE2 10 ng/ml every two days for 7 days) | aged MuSC proliferation and Pax7 expression after 1-day pulse (aged MuSCs; PGE2 10 ng/ml or SW033291 1 μM, 24 hr, assayed at day 7) | intracellular cAMP levels [1] | log fold change in BLI two weeks after injection ([2]; 50 μL into TA, BPV plus 10 μg dmPGE2 compared to BPV/vehicle, dmPGE2 only group) | muscle regeneration vs dmPGE2 dose ([2]; as stated in summary of Example 4)
CCCCC[C@H](O)/C=C/[C@H]1[C@H](O)CC(=O)[C@@H]1C/C=C\CCCC(=O)O [PGE2, prostaglandin E2] | rescued by addition of PGE2 alone | characteristic increase in proliferation and maintenance of Pax7 expression | elevated downstream intracellular cyclic AMP (cAMP) levels |  | 
CCCCC(C)(C)[C@H](O)/C=C/[C@H]1[C@H](O)CC(=O)[C@@H]1C/C=C\CCCC(=O)O [dmPGE2, 16,16-dimethyl prostaglandin E2] |  |  |  | No detectable change | more pronounced muscle regeneration
